In ChEMBL document CHEMBL1156667, “Dynamic nature of the ligustilide complex” (J Nat Prod, 2008):

Key:
Type in all cases: physicochemical
[1] = Chemical stability in DMSO after 41 days; details: read-out: Stability
[2] = Chemical stability in MeOH after 41 days; details: read-out: Stability
[3] = Chemical stability in CDCl3 after 46 days by GC-MS analysis; details: read-out: Stability
[4] = Chemical stability in CDCl3 after 46 days by qHNMR experiment; details: read-out: Stability
[5] = Chemical stability in heaxane; EtOAc:MeOH:H2O-7 (9:1:9:1) after 41 days by qHNMR experiment; details: hexane:EtOAc:MeOH:H2O (9:1:9:1) solvent mixture; read-out: Stability

- remaining at 984 h [1]: 5.2%
- remaining at 984 h [2]: 4.4%
- remaining at 1104 h [3]: 91.6%
- remaining at 1104 h [4]: 78.1%
- remaining at 984 h [5]: 0.8%
SMILES: CCC/C=C1\OC(=O)C2=C1CCC=C2 [LIGUSTILIDE]
